Converted amounts (≈) assume the structure as drawn. One block for each compound: values may come before it.
What was measured:
Assay in all cases: ≥ marks a high value that may be exact or a test limit, other limits are often not marked, values filed in µg/mL are converted to µM
Salmonella typhimurium = system: Salmonella typhimurium
[1] = system: Staphylococcus aureus ATCC 29213
Escherichia coli O157 = system: Escherichia coli O157
Listeria monocytogenes = system: Listeria monocytogenes
[2] = system: Staphylococcus aureus ATCC 43300
[3] = system: Micrococcus luteus ATCC 10420
[4] = system: Escherichia coli ATCC 25404
[5] = system: Staphylococcus epidermidis ATCC 9709
[6] = system: Staphylococcus aureus ATCC 25923
[7] = system: Bacillus licheniformis X39
[8] = system: Enterococcus faecium 091299
[9] = system: Psychrobacter faecalis X29
[10] = system: Candida albicans ATCC 2002
[11] = system: Enterococcus faecalis 981
[12] = system: Rhodococcus rhodochrous X15
[13] = system: Staphylococcus carnosus KHS
[14] = system: Escherichia coli ATCC 25922
Bacillus megaterium Bm11 = system: Bacillus megaterium Bm11
[15] = system: Staphylococcus aureus Cowan 1
[16] = system: Yersinia pseudotuberculosis YPIII
Staphylococcus capitis 1 = system: Staphylococcus capitis 1
[17] = system: Candida albicans ATCC 10231
[18] = system: Stenotrophomonas maltophilia B32/4
[19] = system: Candida albicans ATCC 90028
[20] = system: Stenotrophomonas maltophilia B32/1
[21] = system: Staphylococcus aureus 127/08
[22] = system: Escherichia coli ATCC 25726
[23] = system: Pseudomonas aeruginosa ATCC 27853
[24] = system: Klebsiella pneumoniae ATCC 700603
[25] = system: Acinetobacter baumannii NM8
Escherichia coli UB1005 = system: Escherichia coli UB1005
[26] = system: Corynebacterium xerosis C875
[27] = system: Staphylococcus epidermidis C621
Escherichia coli DC2 = system: Escherichia coli DC2
Botrytis cinerea = system: Botrytis cinerea
[28] = system: Escherichia coli ATCC 11775
[29] = system: Staphylococcus aureus ATCC 12600

SMILES: CC(C)C[C@H](NC(=O)[C@H](CC(C)C)NC(=O)[C@H](Cc1cnc[nH]1)NC(=O)[C@H](CO)NC(=O)[C@H](CC(C)C)NC(=O)[C@H](C)NC(=O)[C@H](CCCCN)NC(=O)[C@H](Cc1ccccc1)NC(=O)[C@H](CC(C)C)NC(=O)[C@H](C)NC(=O)CNC(=O)[C@H](CC(C)C)NC(=O)[C@@H](N)Cc1ccccc1)C(=O)O [FLGALFKALSHLL]
MIC (Salmonella typhimurium): ≥ 64 µM
MIC [1]: 8 µM (≈ 11.4 µg/mL)
MIC (Escherichia coli O157): ≥ 64 µM
MIC (Listeria monocytogenes): 8 µM (≈ 11.4 µg/mL)
MIC [2]: 4 µM (≈ 5.72 µg/mL)
MIC [3]: 8 µM (≈ 11.4 µg/mL)
MIC [4]: ≥ 64 µM
MIC [5]: 8 µM (≈ 11.4 µg/mL)

SMILES: CC[C@H](C)[C@H](NC(=O)[C@H](CC(C)C)NC(=O)[C@@H]1CCCN1C(=O)[C@H](CC(C)C)NC(=O)[C@@H](N)Cc1ccccc1)C(=O)N[C@@H](C)C(=O)N[C@@H](CO)C(=O)N[C@H](C(=O)N[C@@H](C)C(=O)N[C@@H](C)C(=O)N[C@@H](CC(N)=O)C(=O)N[C@@H](CC(C)C)C(=O)N[C@H](C(=O)N1CCC[C@H]1C(=O)N[C@@H](CCCCN)C(=O)N[C@H](C(=O)N[C@@H](Cc1ccccc1)C(=O)N[C@H]1CSSC[C@@H](C(=O)O)NC(=O)[C@H](CCCCN)NC(=O)[C@H](CCCCN)NC(=O)[C@H]([C@@H](C)O)NC(=O)[C@H]([C@@H](C)CC)NC(=O)[C@H](CCCCN)NC1=O)[C@@H](C)CC)C(C)C)C(C)C [FLPLIASVAANLVPKIFCKITKKC]
MIC [7]: 2.4 µM (≈ 6.28 µg/mL)
MIC [8]: ≥ 37.5 µM
MIC [9]: 9.5 µM (≈ 24.9 µg/mL)
MIC [10]: 9.5 µM (≈ 24.9 µg/mL)
MIC [11]: ≥ 75 µM
MIC [6]: 2.4 µM (≈ 6.28 µg/mL)
MIC [12]: 1.2 µM (≈ 3.14 µg/mL)
MIC [13]: 19 µM (≈ 49.7 µg/mL)
MIC [14]: 150 µM (≈ 392 µg/mL)

SMILES: CC[C@H](C)[C@H](NC(=O)[C@H](CC(C)C)NC(=O)[C@@H]1CCCN1C(=O)[C@H](CC(C)C)NC(=O)[C@@H](N)Cc1ccccc1)C(=O)NCC(=O)N[C@@H](CCCN=C(N)N)C(=O)N[C@H](C(=O)N[C@@H](CC(C)C)C(=O)N[C@@H](CO)C(=O)NCC(=O)N[C@@H](C)C(=O)N[C@@H](CC(C)C)C(N)=O)C(C)C [FLPLIGRVLSGAL]
MIC (Bacillus megaterium Bm11): 20 µM (≈ 27.1 µg/mL)
MIC [15]: ≥ 40 µM
MIC [16]: ≥ 40 µM
MIC (Staphylococcus capitis 1): ≥ 40 µM
MIC [17]: 20 µM (≈ 27.1 µg/mL)
MIC [14]: > 40 µM

SMILES: CC[C@H](C)[C@@H]1NC(=O)[C@H](CCCCN)NC(=O)[C@@H](NC(=O)[C@H](C)NC(=O)[C@@H](NC(=O)[C@H](CC(C)C)NC(=O)[C@H](CC(=O)O)NC(=O)[C@@H](NC(=O)CNC(=O)[C@H](CC(C)C)NC(=O)[C@H](CCCCN)NC(=O)[C@H](C)NC(=O)[C@H](CC(C)C)NC(=O)[C@H](CC(=O)O)NC(=O)[C@H](CCCCN)NC(=O)CNC(=O)[C@H](CC(C)C)NC(=O)CNC(=O)[C@H](CCCCN)NC(=O)[C@H](CO)NC(=O)[C@H](C)NC(=O)[C@H](Cc2ccccc2)NC(=O)[C@H](CCCCN)NC(=O)[C@H](C)NC(=O)[C@@H](NC(=O)CNC(=O)[C@H](CCCN=C(N)N)NC(=O)[C@H](Cc2ccccc2)NC(=O)[C@@H](NC(=O)[C@H](CO)NC(=O)[C@H](CO)NC(=O)[C@H](Cc2ccccc2)NC(=O)CN)[C@@H](C)CC)C(C)C)C(C)C)C(C)C)CSSC[C@@H](C(=O)O)NC(=O)[C@H](CCC(N)=O)NC(=O)[C@H](CCCCN)NC(=O)[C@H](CO)NC1=O [GFSSIFRGVAKFASKGLGKDLAKLGVDLVACKISKQC]
MIC [18]: 3 µM (≈ 11.5 µg/mL)
MIC [19]: 10 µM (≈ 38.4 µg/mL)
MIC [20]: 6 µM (≈ 23 µg/mL)
MIC [6]: 5 µM (≈ 19.2 µg/mL)
MIC [21]: 6 µM (≈ 23 µg/mL)
MIC [22]: 5 µM (≈ 19.2 µg/mL)
MIC [23]: 5 µM (≈ 19.2 µg/mL)
MIC [24]: 5 µM (≈ 19.2 µg/mL)
MIC [25]: 6 µM (≈ 23 µg/mL)

SMILES: CC[C@H](C)[C@@H]1NC(=O)[C@H](CCCCN)NC(=O)[C@@H](NC(=O)[C@H](C)NC(=O)[C@@H](NC(=O)[C@H](CC(C)C)NC(=O)[C@H](CC(=O)O)NC(=O)[C@@H](NC(=O)CNC(=O)[C@H](CC(C)C)NC(=O)[C@H](CCCCN)NC(=O)[C@H](C)NC(=O)[C@H](CC(C)C)NC(=O)[C@H](CC(=O)O)NC(=O)[C@H](CCCCN)NC(=O)CNC(=O)[C@H](CC(C)C)NC(=O)CNC(=O)[C@@H](N)CCCCN)C(C)C)C(C)C)CSSC[C@@H](C(=O)O)NC(=O)[C@H](CCC(N)=O)NC(=O)[C@H](CCCCN)NC(=O)[C@H](CO)NC1=O [KGLGKDLAKLGVDLVACKISKQC]
MIC [18]: ≥ 200 µM
MIC [20]: ≥ 200 µM
MIC [6]: > 200 µM
MIC [21]: ≥ 200 µM
MIC [22]: ≥ 200 µM
MIC [25]: ≥ 200 µM

The remaining lines, values ahead:

MIC (Salmonella typhimurium): ≥ 64 µM
MIC (Escherichia coli O157): ≥ 64 µM
MIC (Listeria monocytogenes): 4 µM (≈ 5.84 µg/mL)
MIC [3]: 2 µM (≈ 2.92 µg/mL)
MIC [6]: 4 µM (≈ 5.84 µg/mL)
MIC [4]: ≥ 64 µM
MIC [5]: 4 µM (≈ 5.84 µg/mL)
SMILES: CC(C)C[C@H](NC(=O)[C@H](CC(C)C)NC(=O)[C@H](CCCCN)NC(=O)[C@H](CO)NC(=O)[C@H](CC(C)C)NC(=O)[C@H](C)NC(=O)[C@H](CCCCN)NC(=O)[C@H](Cc1c[nH]c2ccccc12)NC(=O)[C@H](CC(C)C)NC(=O)[C@H](C)NC(=O)CNC(=O)[C@H](CC(C)C)NC(=O)[C@@H](N)Cc1ccccc1)C(=O)O [FLGALWKALSKLL]

MIC (Escherichia coli UB1005): ≥ 64 µM
MIC [26]: ≥ 32 µM
MIC [27]: ≥ 64 µM
MIC (Escherichia coli DC2): ≥ 64 µM
SMILES: C[C@H](NC(=O)[C@H](C)NC(=O)[C@H](C)NC(=O)[C@H](Cc1cnc[nH]1)NC(=O)[C@H](C)NC(=O)[C@H](C)NC(=O)[C@H](C)NC(=O)[C@H](CCCCN)NC(=O)[C@@H](N)CCCCN)C(=O)N[C@@H](C)C(=O)N[C@@H](C)C(=O)N[C@@H](Cc1cnc[nH]1)C(=O)N[C@@H](C)C(=O)N[C@@H](C)C(=O)N[C@@H](Cc1c[nH]c2ccccc12)C(=O)N[C@@H](C)C(=O)N[C@@H](C)C(=O)N[C@@H](Cc1cnc[nH]1)C(=O)N[C@@H](C)C(=O)N[C@@H](C)C(=O)N[C@@H](C)C(=O)N[C@@H](CCCCN)C(=O)N[C@@H](CCCCN)C(=O)N[C@@H](CCCCN)C(=O)N[C@@H](CCCCN)C(N)=O [KKAAAHAAAAAHAAWAAHAAAKKKK]

MIC (Botrytis cinerea): ≥ 200 µM
MIC [28]: ≥ 200 µM
MIC [29]: ≥ 200 µM
MIC [17]: > 200 µM
SMILES: CC(C)C[C@H](NC(=O)[C@H](CC(C)C)NC(=O)[C@H](CO)NC(=O)[C@H](CCC(N)=O)NC(=O)[C@@H](NC(=O)[C@@H](NC(=O)[C@H](CCCCN)NC(=O)[C@@H]1CCCN1C(=O)[C@H](CC(=O)O)NC(=O)[C@@H](N)CC(C)C)C(C)C)C(C)C)C(N)=O [LDPKVVQSLL]
